In ChEMBL document CHEMBL1136478, “New cerebrosides from Euphorbia peplis L.: antimicrobial activity evaluation” (2003):
In brackets after ≈: the same amount, converted by molar mass.

Assays:
Candida albicans [1] = assay: Antifungal activity against Candida albicans after 24 hr incubation; format: functional
Candida albicans [2] = assay: Antifungal activity against Candida albicans after 48 hr incubation; format: functional
Candida parapsilosis [3] = assay: Antifungal activity against Candida parapsilosis after 24 hr incubation; format: functional; details: Lodderomyces parapsilosis
Nakaseomyces glabratus [4] = assay: Antifungal activity against Candida glabrata after 24 hr incubation; format: functional
Nakaseomyces glabratus [5] = assay: Antifungal activity against Candida glabrata after 48 hr incubation; format: functional
[6] = test system: Mycobacterium tuberculosis; assay: Antibacterial activity against Mycobacterium tuberculosis H172; format: functional
[7] = test system: Mycobacterium tuberculosis; assay: Antibacterial activity against Mycobacterium tuberculosis H242; format: functional
[8] = test system: Mycobacterium tuberculosis; assay: Antibacterial activity against Mycobacterium tuberculosis H331; format: functional
[9] = test system: Mycobacterium tuberculosis; assay: Antibacterial activity against human Mycobacterium tuberculosis H37Rv; format: functional
Candida parapsilosis [10] = assay: Antifungal activity against Candida parapsilosis after 48 hr incubation; format: functional; details: Lodderomyces parapsilosis
Staphylococcus aureus = assay: Antibacterial activity against Staphylococcus aureus ATCC 25923; format: functional
Escherichia coli = assay: Antibacterial activity against Escherichia coli ATCC 25922; format: functional
Cryptococcus neoformans [11] = assay: Antifungal activity against Cryptococcus neoformans after 24 hr incubation
Cryptococcus neoformans [12] = assay: Antifungal activity against Cryptococcus neoformans after 48 hr incubation

Row | Compound | MIC (Candida albicans [1]) [µg/mL] | MIC (Candida albicans [2]) [µg/mL] | MIC (Candida parapsilosis [3]) [µg/mL] | MIC (Nakaseomyces glabratus [4]) [µg/mL] | MIC (Nakaseomyces glabratus [5]) [µg/mL] | MIC [6] [µg/mL] | MIC [7] [µg/mL] | MIC [8] [µg/mL] | MIC [9] [µg/mL] | MIC (Candida parapsilosis [10]) [µg/mL] | MIC (Staphylococcus aureus) [µg/mL] | MIC (Escherichia coli) [µg/mL] | MIC (Cryptococcus neoformans [11]) [µg/mL] | MIC (Cryptococcus neoformans [12]) [µg/mL]
1 | CCCCCCCC/C=C/CCCCCCCCCCCC[C@@H](O)C(=O)N[C@@H](CO[C@@H]1OC(CO)[C@@H](O)C(O)C1O)[C@H](O)[C@H](O)CCC/C=C/CCCCCCCCC (some centres undefined) | > 128 | > 128 | > 128 | > 128 | > 128 | > 160 | > 160 | > 160 | 160 (≈ 190 µM) | > 128 | 160 (≈ 190 µM) | 160 (≈ 190 µM) | 64 (≈ 76 µM) | > 128
2 | CCCCCCCCC/C=C/CC/C=C/[C@@H](O)[C@H](CO[C@@H]1OC(CO)[C@@H](O)C(O)C1O)NC(=O)[C@H](O)CCCCCCCCCCCCCC (some centres undefined) | > 128 | > 128 | > 128 | > 128 | > 128 | > 160 | > 160 | > 160 | > 160 | > 128 | > 160 | > 160 | 128 (≈ 179 µM) | > 128
3 | CCCCCCCC/C=C/CCCCCCCCCCCCCC[C@@H](O)C(=O)N[C@@H](CO[C@@H]1OC(CO)[C@@H](O)C(O)C1O)[C@H](O)[C@H](O)CCC/C=C/CCCCCCCCC (some centres undefined) | > 128 | > 128 | > 128 | > 128 | > 128 | 40 (≈ 46 µM) | 80 (≈ 91.9 µM) | 40 (≈ 46 µM) | 40 (≈ 46 µM) | > 128 | > 160 | > 160 | 128 (≈ 147 µM) | > 128
4 | O=C(O)c1cn(C2CC2)c2cc(N3CCNCC3)c(F)cc2c1=O [CIPROFLOXACIN] |  |  |  |  |  | 0.25 (≈ 0.754 µM) | 0.125 (≈ 0.377 µM) | 0.125 (≈ 0.377 µM) | 0.25 (≈ 0.754 µM) |  | 0.5 (≈ 1.51 µM) |  |  | 
5 | CCCCCCCCC/C=C/CCC[C@@H](O)[C@@H](O)[C@H](CO[C@@H]1OC(CO)[C@@H](O)C(O)C1O)NC(=O)[C@H](O)CCCCCCCCCCCCCCCCCCCCCC (some centres undefined) | > 128 | > 128 | > 128 | > 128 | > 128 | > 160 | > 160 | > 160 | > 160 | > 128 | > 160 | > 160 | 128 (≈ 152 µM) | > 128
6 | Clc1ccc(COC(Cn2ccnc2)c2ccc(Cl)cc2Cl)c(Cl)c1 (centres undefined) [MICONAZOLE] | 2.5 (≈ 6.01 µM) | 40 (≈ 96.1 µM) | 0.625 (≈ 1.5 µM) | 5 (≈ 12 µM) | 10 (≈ 24 µM) |  |  |  |  | 1.25 (≈ 3 µM) |  |  | 0.156 (≈ 0.375 µM) | 0.156 (≈ 0.375 µM)
